Test results reported in paper PMC9913705, “Novel Non-Cyclooxygenase Inhibitory Derivative of Sulindac Inhibits Breast Cancer Cell Growth In Vitro and Reduces Mammary Tumorigenesis in Rats” (Cancers, 2023).
Read-outs that look alike come from different tables or passages of the source.

Tests used:
[1] = test system: human breast cancer cell lines; settings: same cell lines and treatment conditions; read-out: IC50 for human breast cancer cell growth (range over cell lines); cited from earlier work
purified ovine COX-1 = biological target: T1, purified ovine COX-1 (Ovis aries, UniProt P05979); experiment: COX-1 colorimetric activity assay (Cayman kit); type: biochemical
T1 construct: purchased Cayman Chemical Company
T1 sequence (P05979 25-600): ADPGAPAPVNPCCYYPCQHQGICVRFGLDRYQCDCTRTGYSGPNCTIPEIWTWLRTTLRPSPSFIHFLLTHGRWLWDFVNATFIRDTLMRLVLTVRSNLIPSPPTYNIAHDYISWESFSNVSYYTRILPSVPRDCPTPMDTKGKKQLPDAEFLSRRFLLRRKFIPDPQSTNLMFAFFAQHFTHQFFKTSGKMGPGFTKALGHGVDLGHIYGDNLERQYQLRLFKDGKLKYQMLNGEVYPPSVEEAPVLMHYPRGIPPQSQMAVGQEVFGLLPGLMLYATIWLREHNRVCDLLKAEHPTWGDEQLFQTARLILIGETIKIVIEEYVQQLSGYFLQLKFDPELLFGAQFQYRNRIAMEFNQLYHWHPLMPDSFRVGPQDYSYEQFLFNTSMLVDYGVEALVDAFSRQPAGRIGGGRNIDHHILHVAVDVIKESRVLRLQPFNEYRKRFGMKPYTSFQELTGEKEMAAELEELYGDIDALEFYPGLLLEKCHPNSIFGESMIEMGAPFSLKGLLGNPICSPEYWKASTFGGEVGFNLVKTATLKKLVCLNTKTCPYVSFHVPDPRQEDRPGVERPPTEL
Experimental: (§1) COX-1 and COX-2 activities were measured using purified ovine COX-1 and COX-2 with colorimetric assay kits obtained from Cayman Chemical Company (Ann Arbor, MI, USA) according to the manufacturer’s protocol. After the addition of arachidonic acid and incubation at 25 °C for 5 min, COX activity was determined by measuring absorbance at 590 nm.

purified ovine COX-2 = biological target: T2, purified ovine COX-2 (Ovis aries, UniProt P79208); experiment: COX-2 colorimetric activity assay (Cayman kit); type: biochemical; settings: purified enzyme
T2 construct: purchased Cayman Chemical Company
T2 sequence (P79208 17-603): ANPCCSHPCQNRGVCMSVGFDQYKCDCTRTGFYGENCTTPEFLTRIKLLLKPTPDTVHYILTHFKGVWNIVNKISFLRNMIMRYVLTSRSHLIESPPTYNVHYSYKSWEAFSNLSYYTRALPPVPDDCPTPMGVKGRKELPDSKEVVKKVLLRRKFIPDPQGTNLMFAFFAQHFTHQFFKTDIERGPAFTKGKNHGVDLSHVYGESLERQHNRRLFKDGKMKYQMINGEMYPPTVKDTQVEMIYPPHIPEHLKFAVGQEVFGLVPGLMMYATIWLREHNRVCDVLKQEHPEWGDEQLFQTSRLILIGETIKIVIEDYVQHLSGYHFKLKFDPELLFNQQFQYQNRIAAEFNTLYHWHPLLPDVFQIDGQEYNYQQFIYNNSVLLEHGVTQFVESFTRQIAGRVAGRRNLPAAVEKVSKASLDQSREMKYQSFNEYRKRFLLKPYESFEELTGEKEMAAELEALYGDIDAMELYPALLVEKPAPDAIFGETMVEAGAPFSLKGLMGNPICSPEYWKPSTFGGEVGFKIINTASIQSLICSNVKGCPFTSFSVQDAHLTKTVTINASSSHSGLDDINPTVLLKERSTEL
Experimental: as §1

[2] = test system: human breast cancer cell lines; experiment: Growth inhibition, Cell Titer Glo, panel of human breast cancer cell lines; type: cell-based
Experimental: (§2) The human breast tumor cell lines Hs578t, MCF7, MDA-MB-231, SKBr3, and ZR75-1 were obtained from ATCC (Manassas, VA, USA) and grown in RPMI 1640 media containing L-glutamine, 5% fetal bovine serum, and penicillin/streptomycin at 37 °C in a humidified atmosphere with 5% CO2.
(§3) Growth inhibition was measured using the Promega (Madison, WI, USA) Cell Titer Glo Assay following manufacturer’s specifications. First, 96-well tissue culture treated microtiter plates were seeded at a density of 5000 cells per well and incubated at 37 °C for 24 h prior to drug treatment. After treatment, plates were incubated 72 h prior to assay.

Hs578t = experiment: Growth inhibition, Cell Titer Glo; type: cell-based; settings: Homo sapiens, Hs-578T, 72 h, 2D
Experimental: as §2, §3

MCF7 = experiment: Growth inhibition, Cell Titer Glo; type: cell-based; settings: Homo sapiens; MCF7, 72 h, 2D
Experimental: as §2, §3

MDA-MB-231 = experiment: Growth inhibition, Cell Titer Glo; type: cell-based; settings: Homo sapiens; MDA-MB-231, 72 h, 2D
Experimental: as §2, §3

SKBr3 = experiment: Growth inhibition, Cell Titer Glo; type: cell-based; settings: Homo sapiens, SK-BR-3; SKBr3, 72 h, 2D
Experimental: as §2, §3

ZR75-1 = experiment: Growth inhibition, Cell Titer Glo; type: cell-based; settings: Homo sapiens, ZR-75-1; ZR75-1, 72 h, 2D
Experimental: as §2, §3

[3] = test system: Hs578t, MDA-MB-231, SKBr3, and ZR75-1 cells; experiment: Caspase 3/7 Glo assay; type: cell-based, human; settings: 6 h treatment; range over Hs578t, MDA-MB-231, SKBr3, ZR75-1
Experimental: (§4) Caspase activation was measured using Promega’s Caspase 3/7 Glo Assay following the manufacturer’s specifications. First, 96-well tissue culture treated microtiter plates were seeded at a density of 10,000 cells per well and incubated at 37 °C for 24 h prior to drug treatment. After treatment, plates were incubated 6 h prior to assay.

MCF7 cells = experiment: Caspase 3/7 Glo assay; type: cell-based, human; settings: MCF7, 6 h treatment
Experimental: as §4

SKBr3 cells = experiment: APO-BrdU TUNEL assay (DNA fragmentation), flow cytometry; type: cell-based, human; settings: 24 h
Experimental: A terminal deoxynucleotidyl transferase dUTP nick end labeling (TUNEL) assay was performed in SKBr3 cells using the Invitrogen APO-BrdU TUNEL Assay (Waltham, MA, USA) according to the manufacturer’s protocol, and fluorescence was measured using a Guava EasyCyte (Hayward, CA, USA) flow cytometry system. First, 10 cm tissue culture treated dishes were seeded at a density of 2,000,000 cells per dish and incubated at […] for 24 h prior to drug treatment. After treatment, cells were incubated for 24 h and then collected and fixed with 4% paraformaldehyde for 15 min on ice, washed with phosphate buffered saline (PBS), and incubated in 70% ethanol at −20 °C for 4–24 h prior to assay.

[4] = test system: MDA-MB-231 breast tumor cells; experiment: 3D HuBiogel mini-tumor growth, calcein-AM live imaging; type: cell-based, human; settings: MDA-MB-231, calcein AM live imaging
Experimental: Viable mini-tumors (1 mm in size) of MDA-MB-231 breast tumor cells were generated using the three-dimensional human Biogel culture system from Vivo Biosciences (Birmingham, AL, USA). Accordingly, 20,000 cells were mixed with HuBiogel beads and cultivated in rotary bioreactors for 3 days. Live cell imaging was performed using Calcein- acetoxymethyl (calcein-AM) staining.

recombinant PDE5 = biological target: T3, recombinant PDE5 (Homo sapiens, UniProt O76074); experiment: PDE activity, IMAP fluorescence polarization assay; type: biochemical
T3 construct: purchased BPS Biosciences
Experimental: (§5) PDE activity was measured using the Molecular Devices (San Diego, CA, USA) IMAP fluorescence polarization assay as previously described. Recombinant PDE5 was purchased from BPS Biosciences (San Diego, CA, USA).

[5] = test system: cGMP PDE in MDA-MB-231 whole cell lysate; experiment: cGMP hydrolysis in whole cell lysate, IMAP assay; type: biochemical, human; settings: 100 µM
Experimental: as §5

[6] = test system: cGMP PDE in SKBr3 whole cell lysate; experiment: cGMP hydrolysis in whole cell lysate, IMAP assay; type: biochemical, human; settings: 100 µM
Experimental: as §5

MDA-MB-231 cells = experiment: Intracellular cGMP levels; type: cell-based, human; settings: intact MDA-MB-231, 30 min, concentrations comparable with growth IC50
Experimental: Intracellular levels of cGMP were measured in MDA-MB-231 cells after 30 min of drug treatment, as previously described.

[7] = test system: MDA-MB-231 breast cancer cells; experiment: Western blotting of phospho-VASP Ser239, cyclin D1, survivin; type: cell-based, human; settings: 7.5 µM
Experimental: All antibodies were obtained from Cell Signaling Technologies (Danvers, MA, USA). Cells were harvested and vortexed in ice cold lysis buffer containing 20 mM tris acetate, 5mM magnesium acetate, 1 mM ethylene glycol-bis(β-aminoethyl ether)-N,N,N′,N′-tetraacetic acid (EGTA), 0.8% Triton X-100, 50 mM sodium fluoride, 1.25 mM sodium vanadate, and protease inhibitor cocktail at pH 7.4. Lysates were centrifuged at 10,000× g for 10 min at 4 °C. Protein contents were determined using the Thermo/Pierce (Waltham, MA, USA) bicinchoninic acid (BCA) protein assay following the manufacturer’s specifications.
Proteins (15 µg) from lysed cells were separated by sodium dodecyl sulfate polyacrylamide gel electrophoresis (SDS-PAGE) in a 12% polyacrylamide gel followed by electrophoretic transfer to a nitrocellulose membrane. The membranes were blocked with 5% nonfat dry milk in tris-buffered saline (TBS) containing 0.05% Tween-20. Membranes were incubated with primary antibody at 4 °C overnight followed by incubation with secondary antibody conjugated to horseradish peroxidase for 2 h at room temperature. Protein bands were visualized using Millipore Immobilon enhanced chemiluminescence (ECL) substrate on HyBlot CL autoradiography film.

Hs578t cells = experiment: Tcf transcriptional activity, Super8XTOPFlash luciferase reporter; type: cell-based, human; settings: 24 h
Experimental: Tcf transcriptional activity was measured in Hs578t cells. Cells were seeded in 24-well tissue culture treated plates. After 24 h of incubation, cells were transiently transfected with 0.1 µg of Promega β-galactosidase-expressing vector and 0.1 µg of Super8XTOPFlash construct, which was kindly provided by Randall T. Moon from the University of Washington (Seattle, WA, USA). After 24 h of transfection, cells were treated with compound and incubated for an additional 24 h. Cells were lysed, and luciferase and β-galactosidase activities were measured using assay systems from Promega (Madison, WI, USA), following the manufacturer’s instructions. Luciferase activity was normalized to β-galactosidase activity.

[8] = test system: MNU-induced mammary tumors; experiment: MNU model of mammary carcinogenesis; type: in vivo; settings: for reduction in tumor incidence compared to vehicle control / reduction in tumor multiplicity compared to vehicle control: 126 days after MNU
Experimental: In vivo efficacy was evaluated using the N-methyl-N-nitrosourea (MNU) model of mammary carcinogenesis, as previously described. Briefly, female Sprague-Dawley rats were obtained from Envigo (formerly Harlan Sprague-Dawley, Inc.) (Indianapolis, IN, USA) at 28 days of age and placed on a Teklad 4% fat diet on the day of arrival. Within one week of arrival, rats were randomly assigned to groups (15 rats/group), ear marked for identification, and weighed to ensure statistically similar average body weights per group. At 50 days of age, rats received one IV injection of MNU (75 mg/kg) via the jugular vein. Rats were administered 800 or 1200 ppm of SSA or vehicle control in diet beginning 3 days after MNU administration. Rats were weighed once per week, palpated for mammary tumors twice per week, and checked daily for signs of toxicity. The study was terminated at 126 days after MNU administration. All mammary tumors were weighed when removed at necropsy, weighed, and processed for histological classification and analysis. The protocol used for this study was approved by the University of Alabama at Birmingham (UAB) IACUC where the study was performed.

[9] = Plasma levels after dietary feeding; type: in vivo, Sprague-Dawley rats; settings: diet containing 1000, 2000, or 3000 ppm

SMILES: CSc1ccc(/C=C2/C(C)=C(CC(=O)O)c3cc(F)ccc32)cc1 [SS, sulindac sulfide]
- IC50 [1]: 58.8 to 83.7 µM

SMILES: CSc1ccc(/C=C2/C(C)=C(CC(=O)NCCN(C)C)c3cc(F)ccc32)cc1 [SSA, sulindac sulfide amide]
- IC50 (purified ovine COX-1; purified enzyme): 81.6 µM
- fold less potent than sulindac sulfide (SS) in inhibiting COX-1 (purified ovine COX-1; vs SS): 68 fold
- IC50 (purified ovine COX-2): > 200 µM
- IC50 ([2]; Homo sapiens, 72 h treatment, 2D growth, read-out: IC50 for human breast cancer cell growth (range over cell lines)): 3.9 to 7.1 µM
- fold more potent than SS in inhibiting growth and inducing apoptosis in breast cancer cells ([2]; vs SS): 10 fold
- IC50 (Hs578t): 7 µM
- IC50 (MCF7): 7 µM
- IC50 (MDA-MB-231): 6.5 µM
- IC50 (SKBr3): 3.9 µM
- IC50 (ZR75-1): 7.1 µM
- increase in activity of caspases 3 and 7 [3]: 2 to 6 fold
- caspase activation (MCF7 cells): no increase
- TUNEL Positive (SKBr3 cells; 10 μM): 2%
- TUNEL Positive (SKBr3 cells; 25 μM): 59%
- TUNEL Positive (SKBr3 cells; 50 μM): 86%
- cell growth in 3D HuBiogel [4]: markedly reduced
- inhibition at 25 µM (recombinant PDE5): 55%
- inhibition of cGMP hydrolysis [5]: 38%
- inhibition of cGMP hydrolysis [6]: 65%
- intracellular cGMP levels (MDA-MB-231 cells): increased intracellular cGMP levels
- VASP phosphorylation at serine 239 (PKG activity marker) ([7]; MDA-MB-231): significantly increased
- time of peak VASP phosphorylation ([7]; MDA-MB-231): 1 h
- cyclin D1 protein levels ([7]; after 1 h): decreased appreciably
- survivin protein levels ([7]; after 7 h): decreased appreciably
- reduction of Tcf transcriptional activity (Hs578t cells; 5 µM): 14%
- reduction of Tcf transcriptional activity (Hs578t cells; 20 µM): 60%
- change in body weight ([8]; 800 and 1200 ppm in diet, 126-day study): Neither dose of SSA resulted in a significant change
- reduction in tumor incidence compared to vehicle control ([8]; 800 ppm in diet): 22%
- reduction in tumor multiplicity compared to vehicle control ([8]; 800 ppm in diet): 31%
- reduction in tumor incidence compared to vehicle control ([8]; 1200 ppm in diet): 43%
- reduction in tumor multiplicity compared to vehicle control ([8]; 1200 ppm in diet): 62%
- reduction in the incidence of tumors ([8]; abstract, dose not stated): 57%
- reduction in the multiplicity of tumors ([8]; abstract, dose not stated): 62%
- toxicity observed in rats ([8]; long-term dietary treatment): no discernable toxicity
- plasma levels [9]: exceed the concentrations necessary for SSA to activate cGMP signaling and inhibit growth in breast cancer cells in vitro
